Converted amounts (≈) assume the structure as drawn. Where a SMILES comes first, the peptide text is derived from it. Bridges are numbered along the chain shown (N, C = ends). Where no end group is shown, it is not given here. [ ]: non-standard residue; d: D form. The star is where a group is joined. X1 = CC[C@H](C)CCCCC(=O)*; Dab = NCC[C@H](N)C(=O)O
How the values were obtained:
[1] = tested on: opsonized S. aureus JE2 atpA mutant in human neutrophils; conditions: 1 h incubation, MOI 1, opsonized with 10% normal human serum; mean of at least seven replicates; without DPI 39.2%
Procedure: (§1) Blood was collected from healthy adult volunteers and written informed consent was given. Isolation of neutrophils was performed following the procedure described in[36]. All methods were carried out in accordance with relevant guidelines and regulations. The institutional review board (IRB) of the University of Tübingen approved the study and all adult subjects provided informed consent. This study was done in accordance with the ethics committee of the medical faculty of the University of Tübingen that approved the study, Approval number 015/2014 BO2. Briefly, heparinized blood was diluted 1:1 (v/v) with PBS containing 0.5% BSA and 2 mM EDTA and layered onto a gradient of Biocoll (density, 1.077 g/ml; Biochrom) and Histopaque (density, 1.119 g/ml; Sigma). After centrifugation for 20 min at 380×g, neutrophils were collected from the Histopaque phase. Cells were subjected to a brief hypotonic shock with ultrapure-water containing 155 mM ammonium chloride, 1 mM potassium hydrogen carbonate and 0.1 mM EDTA at pH 7.4, washed, and suspended at 2.5 × 10^6 cells/ml in RPMI containing […] HSA, 2 mM glutamine, 2 mM sodium pyruvate and 10 mM HEPES.
(§2) Starter cultures of S. aureus JE2 and its respective atpA mutant were grown in TSB medium overnight.

[2] = tested on: opsonized S. aureus JE2 WT in human neutrophils; conditions: 1 h incubation, MOI 1, opsonized with 10% normal human serum; mean of at least seven replicates; without DPI 49.9%
Procedure: as §1, §2

[3] = tested on: atpA::ΦNΣ; test: Etest MIC on TSA; type: cell-based, Staphylococcus aureus; conditions: 37 °C, 24 h
Procedure: (§3) The MIC for polymyxin B was determined using Etest (bioMérieux, France) in the absence and in the presence of sub-inhibitory concentrations (0.0625x–0.25 × MIC) of resveratrol or menadione (1 µg/ml, Sigma). From overnight cultures, strains were diluted to approximately 10^8 CFU/ml and then distributed on TSA plates using a sterile cotton swab.

[4] = tested on: atpA^+ (allelic exchange of transposon insertion with intact atpA gene); test: Etest MIC on TSA; type: cell-based, Staphylococcus aureus; conditions: 37 °C, 24 h
Procedure: as §3

[5] = tested on: S. aureus JE2; test: Etest MIC on TSA; type: cell-based, Staphylococcus aureus; conditions: 37 °C, 24 h
Procedure: as §3

[6] = tested on: menD::ΦNΣ; test: Etest MIC on TSA; type: cell-based, Staphylococcus aureus; conditions: 37 °C, 24 h
Procedure: as §3

[7] = tested on: S. aureus JE2; test: Two-fold broth microdilution MIC in TSB; type: cell-based; conditions: Staphylococcus aureus, JE2, 24 h
Procedure: The minimum inhibitory concentration for resveratrol was determined using a two-fold broth microdilution assay in TSB (100 µl) with an initial inoculum of approximately 5 × 10^5 cells/ml.

[8] = tested on: S. aureus JE2 (WT); test: Bacterial cell survival assay (CFU after 2 h exposure in NaPi); type: cell-based, Staphylococcus aureus
Procedure: (§4) From overnight cultures of S. aureus JE2 and mutants, 10 μl was diluted into 990 μl fresh TSB medium in a falcon tube and grown for 2 h for the cells to reach early exponential phase. After 2 h the cultures were re-suspended in 10 mM sodium phosphate buffer (pH 7.4), termed NaPi (Medicago, Sweden). Cells were subsequently diluted in NaPi to approximately 5 × 10^5 CFU/ml, and combined with antimicrobial peptides and resveratrol when indicated, to a final volume of 100 µl and incubated in 96-well plates with shaking for 2 h at 37 °C. Bacteria were plated for CFU on TSA plates. Following overnight incubation at 37 °C for 24 h, viable cells were enumerated and relative cell survival was calculated as CFUwith peptide/CFUwithout peptide at 2 h post-exposure.

[9] = tested on: S. aureus JE2 atpA mutant (atpA::ΦNΣ); test: as above; type: cell-based, Staphylococcus aureus; conditions: for difference in susceptibility / survival between atpA mutant and WT (in words): 2 h exposure at the concentrations highlighted in Fig. 1a
Procedure: as §4

[10] = tested on: S. aureus JE2 atpG mutant (atpG::ΦNΣ); test: as above; type: cell-based, Staphylococcus aureus; conditions: hBD4 5 µM
Procedure: as §4

[11] = tested on: S. aureus JE2 menD mutant (menD::ΦNΣ); test: as above; type: cell-based, Staphylococcus aureus; conditions: hBD4 5 µM
Procedure: as §4

[12] = tested on: S. aureus JE2 atpB mutant (atpB::ΦNΣ); test: as above; type: cell-based, Staphylococcus aureus; conditions: hBD4 5 µM
Procedure: as §4

Compound: c1ccc2c(c1)[I+]c1ccccc1-2 [DPI, diphenyleneiodonium]
- surviving atpA cells in DPI-treated neutrophils, percentage of initial counts [1]: 74.3%
- surviving WT cells in DPI-treated neutrophils, percentage of initial counts [2]: 91.4%

Compound: CC[C@H](C)CCCCC(=O)N[C@@H](CCN)C(=O)N[C@H](C(=O)N[C@@H](CCN)C(=O)N[C@H]1CCNC(=O)[C@H]([C@@H](C)O)NC(=O)[C@H](CCN)NC(=O)[C@H](CCN)NC(=O)[C@H](CC(C)C)NC(=O)[C@@H](Cc2ccccc2)NC(=O)[C@H](CCN)NC1=O)[C@@H](C)O [polymyxin B] (X1-[Dab]T[Dab][Dab][Dab][dF]L[Dab][Dab]T; lactam 4-C (inferred); N-terminus assumed)
- MIC [3]: 16 µg/mL (≈ 13.3 µM)
- MIC [4]: 96 µg/mL (≈ 79.8 µM)
- Polymyxin B MIC ([5]; TSA + 0 µg/ml resveratrol): 128 µg/mL
- Polymyxin B MIC ([5]; TSA + 16 µg/ml resveratrol): 64 to 96 µg/mL
- Polymyxin B MIC ([5]; TSA + 32 µg/ml resveratrol): 48 µg/mL
- Polymyxin B MIC ([5]; TSA + 64 µg/ml resveratrol): 24 µg/mL
- MIC ([5]; TSA): 128 µg/mL (≈ 106 µM)
- MIC ([6]; TSA + menadione (1 µg/ml)): 192 µg/mL
- MIC ([6]; TSA): > 1024 µg/mL

Compound: Oc1ccc(/C=C/c2cc(O)cc(O)c2)cc1 [resveratrol]
- MIC [7]: 256 µg/mL (≈ 1120 µM)
- increase in killing of WT S. aureus compared with hBD4 alone ([8]; resveratrol 32 µg/ml in combination with hBD4 5 µM): 20 fold
- impact on S. aureus viability ([8]; resveratrol alone at sub-inhibitory concentration 0.125 × MIC (32 µg/ml)): no impact

Compound: LL-37 (LLGDFFRKSKEKIGKEFKRIVQRIKDFLRNLVPRTES; Antibacterial peptide LL-37; UniProt P49913 134-170, looked up) [human antimicrobial peptide of the cathelicidin family (Isca Biochemicals)]
- difference in susceptibility / survival between atpA mutant and WT (in words) [9]: minor increase in bactericidal activity

Compound: hBD1: human β-defensin 1 (Innovagen) (DHYNCVSSGGQCLYSACPIFTKIQGTCYRGKAKCCK; ends and bridges not checked; cysteine pairing not given here; UniProt P60022 33-68, looked up)
- difference in susceptibility / survival between atpA mutant and WT (in words) [9]: no differences

Compound: hBD3: human β-defensin 3 (Innovagen) (GIINTLQKYYCRVRGGRCAVLSCLPKEEQIGKCSTRGRKCCRRKK; ends and bridges not checked; cysteine pairing not given here; UniProt P81534 23-67, looked up)
- difference in susceptibility / survival between atpA mutant and WT (in words) [9]: no differences

Compound: hBD4: human β-defensin 4 (Innovagen) (EFELDRICGYGTARCRKKCRSQEYRIGRCPNTYACCLRKWDESLLNRTKP; ends and bridges not checked; cysteine pairing not given here; UniProt Q8WTQ1 23-72, looked up)
- susceptibility of atpG mutant compared with WT [10]: increased susceptibility
- reduction in viable cell count of menD mutant [11]: no reduction in viable cell count
- susceptibility of atpB mutant compared with WT [12]: increased susceptibility
- difference in susceptibility / survival between atpA mutant and WT (in words) [9]: more susceptible
- greater reduction in viable cells of atpA mutant compared with WT ([9]; 2 h exposure, concentrations of Fig. 1a (5 µM)): 63 fold

Compound: histatin-5
- difference in susceptibility / survival between atpA mutant and WT (in words) [9]: minor increase in bactericidal activity

— article PMC7347559, “Inhibition of the ATP synthase sensitizes Staphylococcus aureus towards human antimicrobial peptides” (Scientific Reports, 2020)
